Experimental data as given in patent publication US9139529B2, “Substituted quinoxalines as sodium channel modulators” (VERTEX PHARMACEUTICALS INCORPORATED, priority 2013, dated 2015).

Biological target: human Nav1.8 (Homo sapiens (Human), UniProt Q9Y5Y9)
Assay: E-VIPR optical membrane potential assay with electrical stimulation
Assay type: cell-based
Conditions: HEK cells expressing human Nav1.8
Text: Assays for Detecting and Measuring NaV Inhibition Properties of Compounds E-VIPR Optical Membrane Potential Assay Method with Electrical Stimulation
Sodium channels are voltage-dependent proteins that can be activated by inducing membrane voltage changes by applying electric fields. The electrical stimulation instrument and methods of use are described in Ion Channel Assay Methods PCT/US01/21652, herein incorporated by reference and are referred to as E-VIPR. The instrument comprises a microtiter plate handler, an optical system for exciting the coumarin dye while simultaneously recording the coumarin and oxonol emissions, a waveform generator, a current- or voltage-controlled amplifier, and a device for inserting electrodes in well. Under integrated computer control, this instrument passes user-programmed electrical stimulus protocols to cells within the wells of the microtiter plate.
24 hours before the assay on E-VIPR, HEK cells expressing human Nav1.8 were seeded in 384-well poly-lysine coated plates at 15,000-20,000 cells per well. HEK cells were grown in media (exact composition is specific to each cell type and NaV subtype) supplemented with 10% FBS (Fetal Bovine Serum, qualified; GibcoBRL #16140-071) and 1% Pen-Strep (Penicillin-Streptomycin; GibcoBRL #15140-122). Cells were grown in vented cap flasks, in 90% humidity and 5% CO2.
1) Pre-spotted compounds (in neat DMSO) into compound plates. Vehicle control (neat DMSO), the positive control (20 mM DMSO stock tetracaine, 125 μM final in assay) and test compounds were added to each well at 160× desired final concentration in neat DMSO. Final compound plate volume was 80 μL (80-fold intermediate dilution from 1 μL DMSO spot; 160-fold final dilution after transfer to cell plate). Final DMSO concentration for all wells in assay was 0.625%.
2) Prepared Hexyl Dye Solution.
3) Prepared cell plates. On the day of the assay, medium was aspirated and cells were washed three times with 100 μL of Bath1 Solution, maintaining 25 μL residual volume in each well.
4) Dispensed 25 μL per well of Hexyl Dye Solution into cell plates. Incubated for 20-35 minutes at room temp or ambient conditions.
5) Dispensed 80 μL per well of Bath1 into compound plates. Acid Yellow-17 (1 mM) was added and Potassium Chloride was altered from 4.5 to 20 mM depending on the NaV subtype and assay sensitivity.
6) Washed cell plates three times with 100 μL per well of Bath1, leaving 25 μL of residual volume. Then transferred 25 uL per well from Compound Plates to Cell Plates. Incubated for 20-35 minutes at room temp/ambient condition.
7) Read Plate on E-VIPR. Used the current-controlled amplifier to deliver stimulation wave pulses for 10 seconds and a scan rate of 200 Hz. A pre-stimulus recording was performed for 0.5 seconds to obtain the un-stimulated intensities baseline. The stimulatory waveform was followed by 0.5 seconds of post-stimulation recording to examine the relaxation to the resting state.
Data was analyzed and reported as normalized ratios of emission intensities measured in the 460 nm and 580 nm channels. The response as a function of time was reported as the ratios obtained using the following formula: […]
The data was further reduced by calculating the initial (Ri) and final (Rf) ratios. These were the average ratio values during part or all of the pre-stimulation period, and during sample points during the stimulation period. The response to the stimulus R=Rf/Ri was then calculated and reported as a function of time.
Control responses were obtained by performing assays in the presence of a compound with the desired properties (positive control), such as tetracaine, and in the absence of pharmacological agents (negative control). Responses to the negative (N) and positive (P) controls were calculated as above. The compound antagonist activity A is defined as:
[formula] where R is the ratio response of the test compound

human Nav1.8, sequence (Q9Y5Y9 whole entry): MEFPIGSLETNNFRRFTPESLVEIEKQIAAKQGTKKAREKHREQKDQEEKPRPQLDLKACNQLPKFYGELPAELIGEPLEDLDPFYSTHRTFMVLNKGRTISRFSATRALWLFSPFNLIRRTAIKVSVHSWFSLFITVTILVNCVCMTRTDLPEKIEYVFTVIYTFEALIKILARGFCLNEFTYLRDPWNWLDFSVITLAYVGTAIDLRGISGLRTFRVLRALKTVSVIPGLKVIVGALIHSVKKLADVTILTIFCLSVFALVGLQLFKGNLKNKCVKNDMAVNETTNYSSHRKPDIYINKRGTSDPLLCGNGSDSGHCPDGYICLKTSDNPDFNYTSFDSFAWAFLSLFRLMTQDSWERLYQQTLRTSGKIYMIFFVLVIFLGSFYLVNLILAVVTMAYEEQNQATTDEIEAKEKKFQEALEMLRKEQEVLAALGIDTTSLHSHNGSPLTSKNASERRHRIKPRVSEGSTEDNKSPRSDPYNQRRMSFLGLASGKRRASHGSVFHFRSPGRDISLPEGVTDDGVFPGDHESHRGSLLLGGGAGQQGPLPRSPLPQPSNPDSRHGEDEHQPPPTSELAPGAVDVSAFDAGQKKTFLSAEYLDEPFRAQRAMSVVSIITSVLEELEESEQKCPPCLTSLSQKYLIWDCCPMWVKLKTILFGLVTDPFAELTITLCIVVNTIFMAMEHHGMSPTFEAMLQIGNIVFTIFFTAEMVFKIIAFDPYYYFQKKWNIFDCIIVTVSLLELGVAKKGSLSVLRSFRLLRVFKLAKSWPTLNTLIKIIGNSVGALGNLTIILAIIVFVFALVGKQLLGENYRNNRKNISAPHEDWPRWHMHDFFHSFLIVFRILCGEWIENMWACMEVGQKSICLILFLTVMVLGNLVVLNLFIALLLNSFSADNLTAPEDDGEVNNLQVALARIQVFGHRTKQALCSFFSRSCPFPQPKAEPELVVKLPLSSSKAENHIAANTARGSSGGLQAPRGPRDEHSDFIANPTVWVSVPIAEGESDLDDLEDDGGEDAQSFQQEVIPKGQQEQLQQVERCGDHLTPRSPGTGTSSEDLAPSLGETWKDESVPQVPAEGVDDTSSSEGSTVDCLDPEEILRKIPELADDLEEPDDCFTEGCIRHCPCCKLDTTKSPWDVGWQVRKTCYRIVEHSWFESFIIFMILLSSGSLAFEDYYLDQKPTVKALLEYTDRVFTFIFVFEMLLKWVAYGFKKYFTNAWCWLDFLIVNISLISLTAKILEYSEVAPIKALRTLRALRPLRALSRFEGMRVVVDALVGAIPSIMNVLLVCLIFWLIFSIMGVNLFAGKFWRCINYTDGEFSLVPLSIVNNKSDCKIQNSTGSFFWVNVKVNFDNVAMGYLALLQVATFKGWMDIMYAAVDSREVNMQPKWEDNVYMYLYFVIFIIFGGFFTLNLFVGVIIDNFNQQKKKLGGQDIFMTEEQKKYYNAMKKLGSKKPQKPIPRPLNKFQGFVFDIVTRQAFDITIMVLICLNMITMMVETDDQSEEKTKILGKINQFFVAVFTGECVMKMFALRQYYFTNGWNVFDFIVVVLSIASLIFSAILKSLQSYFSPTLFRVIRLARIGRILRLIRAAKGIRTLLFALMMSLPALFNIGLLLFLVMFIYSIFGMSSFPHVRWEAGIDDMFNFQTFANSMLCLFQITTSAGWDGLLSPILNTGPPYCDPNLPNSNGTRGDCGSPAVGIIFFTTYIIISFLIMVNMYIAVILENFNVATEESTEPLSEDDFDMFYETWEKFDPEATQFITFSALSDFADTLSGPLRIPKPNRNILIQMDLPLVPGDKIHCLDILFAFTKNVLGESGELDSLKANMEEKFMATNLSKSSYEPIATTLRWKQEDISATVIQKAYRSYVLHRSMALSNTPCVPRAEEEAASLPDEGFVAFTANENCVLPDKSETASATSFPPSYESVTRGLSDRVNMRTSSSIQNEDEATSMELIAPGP

## NS(=O)(=O)c1cccc(NC(=O)c2nc3ccccc3nc2Oc2ccc(F)cc2)c1 [Compound 1, 3-(4-fluorophenoxy)-N-(3-sulfamoylphenyl)quinoxaline-2-carboxamide]
  IC50: 27 nM

## COc1cc(F)ccc1Oc1nc2ccccc2nc1C(=O)Nc1cccc(S(N)(=O)=O)c1 [Compound 2, 3-(4-fluoro-2-methoxyphenoxy)-N-(3-sulfamoylphenyl)quinoxaline-2-carboxamide]
  IC50: 6 nM

## NS(=O)(=O)c1cccc(NC(=O)c2nc3ccccc3nc2Oc2ccc(OC(F)(F)F)cc2)c1 [Compound 3, N-(3-sulfamoylphenyl)-3-(4-(trifluoromethoxy)phenoxy)quinoxaline-2-carboxamide]
  IC50: 14 nM

## COc1ccc(Oc2nc3ccccc3nc2C(=O)Nc2cccc(S(N)(=O)=O)c2)c(Cl)c1 [Compound 4, 3-(2-chloro-4-methoxyphenoxy)-N-(3-sulfamoylphenyl)quinoxaline-2-carboxamide]
  IC50: 4 nM

## NS(=O)(=O)c1cccc(NC(=O)c2nc3ccccc3nc2Oc2ccc(F)cc2F)c1 [Compound 5, 3-(2,4-difluorophenoxy)-N-(3-sulfamoylphenyl)quinoxaline-2-carboxamide]
  IC50: 13 nM

## NS(=O)(=O)c1cccc(NC(=O)c2nc3ccccc3nc2Oc2ccc(F)cc2Cl)c1 [Compound 6, 3-(2-chloro-4-fluorophenoxy)-N-(3-sulfamoylphenyl)quinoxaline-2-carboxamide]
  IC50: 3 nM

## COc1ccc(Oc2nc3ccccc3nc2C(=O)Nc2cccc(S(N)(=O)=O)c2)cc1F [Compound 7, 3-(3-fluoro-4-methoxyphenoxy)-N-(3-sulfamoylphenyl)quinoxaline-2-carboxamide]
  IC50: 42 nM

## COc1ccc(Oc2nc3ccccc3nc2C(=O)Nc2cccc(S(N)(=O)=O)c2)c(OC)c1 [Compound 8, 3-(2,4-dimethoxyphenoxy)-N-(3-sulfamoylphenyl)quinoxaline-2-carboxamide]
  IC50: 6 nM

## Cc1cc(Cl)ccc1Oc1nc2ccccc2nc1C(=O)Nc1cccc(S(N)(=O)=O)c1 [Compound 9, 3-(4-chloro-2-methylphenoxy)-N-(3-sulfamoylphenyl)quinoxaline-2-carboxamide]
  IC50: 14 nM

## NS(=O)(=O)c1cccc(NC(=O)c2nc3ccccc3nc2Oc2ccccc2OC(F)F)c1 [Compound 10, 3-(2-(difluoromethoxy)phenoxy)-N-(3-sulfamoylphenyl)quinoxaline-2-carboxamide]
  IC50: 36 nM

## COc1cc(Cl)ccc1Oc1nc2ccccc2nc1C(=O)Nc1cccc(S(N)(=O)=O)c1 [Compound 11, 3-(4-chloro-2-methoxyphenoxy)-N-(3-sulfamoylphenyl)quinoxaline-2-carboxamide]
  IC50: 5 nM

## COc1ccc(Oc2nc3ccccc3nc2C(=O)Nc2cccc(S(N)(=O)=O)c2)c(F)c1 [Compound 12, 3-(2-fluoro-4-methoxyphenoxy)-N-(3-sulfamoylphenyl)quinoxaline-2-carboxamide]
  IC50: 22 nM

## NS(=O)(=O)c1cccc(NC(=O)c2nc3ccccc3nc2Oc2ccccc2)c1 [Compound 13, 3-phenoxy-N-(3-sulfamoylphenyl)quinoxaline-2-carboxamide]
  IC50: 92 nM

## Cc1cc(F)ccc1Oc1nc2ccccc2nc1C(=O)Nc1cccc(S(N)(=O)=O)c1 [Compound 14, 3-(4-fluoro-2-methylphenoxy)-N-(3-sulfamoylphenyl)quinoxaline-2-carboxamide]
  IC50: 7 nM

## NS(=O)(=O)c1cccc(NC(=O)c2nc3ccccc3nc2Oc2ccc(OCC(F)(F)F)cc2)c1 [Compound 15, N-(3-sulfamoylphenyl)-3-(4-(2,2,2-trifluoroethoxy)phenoxy)quinoxaline-2-carboxamide]
  IC50: 66 nM

## CNS(=O)(=O)c1cccc(NC(=O)c2nc3ccccc3nc2Oc2ccc(F)cc2OC)c1 [Compound 16, 3-(4-fluoro-2-methoxyphenoxy)-N-(3-(N-methylsulfamoyl)phenyl)quinoxaline-2-carboxamide]
  IC50: 22 nM

## O=C(O)c1ccc(NC(=O)c2nc3ccccc3nc2Oc2ccc(OC(F)(F)F)cc2)cc1 [Compound 17, 4-(3-(4-(trifluoromethoxy)phenoxy)quinoxaline-2-carboxamido)benzoic acid]
  IC50: 44 nM

## O=C(O)c1ccc(NC(=O)c2nc3ccccc3nc2Oc2ccc(F)cc2)cn1 [Compound 18, 5-(3-(4-fluorophenoxy)quinoxaline-2-carboxamido)picolinic acid]
  IC50: 250 nM

## Cc1cc(F)ccc1Oc1nc2ccccc2nc1C(=O)Nc1ccc(C(=O)O)nc1 [Compound 19, 5-(3-(4-fluoro-2-methylphenoxy)quinoxaline-2-carboxamido)picolinic acid]
  IC50: 86 nM

## O=C(O)c1ccc(NC(=O)c2nc3ccccc3nc2Oc2ccccc2)cn1 [Compound 20, 5-(3-phenoxyquinoxaline-2-carboxamido)picolinic acid]
  IC50: 1080 nM

## COc1ccc(Oc2nc3ccccc3nc2C(=O)Nc2ccc(C(=O)O)nc2)c(F)c1 [Compound 21, 5-(3-(2-fluoro-4-methoxyphenoxy)quinoxaline-2-carboxamido)picolinic acid]
  IC50: 235 nM

## O=C(O)c1ccc(NC(=O)c2nc3ccccc3nc2Oc2ccc(OCC(F)(F)F)cc2)cn1 [Compound 22, 5-(3-(4-(2,2,2-trifluoroethoxy)phenoxy)quinoxaline-2-carboxamido)picolinic acid]
  IC50: 180 nM

## COc1cc(Cl)ccc1Oc1nc2ccccc2nc1C(=O)Nc1ccc(C(=O)O)nc1 [Compound 23, 5-(3-(4-chloro-2-methoxyphenoxy)quinoxaline-2-carboxamido)picolinic acid]
  IC50: 19 nM

## O=C(O)c1ccc(NC(=O)c2nc3ccccc3nc2Oc2ccccc2OC(F)F)cn1 [Compound 24, 5-(3-(2-(difluoromethoxy)phenoxy)quinoxaline-2-carboxamido)picolinic acid]
  IC50: 340 nM

## Cc1cc(Cl)ccc1Oc1nc2ccccc2nc1C(=O)Nc1ccc(C(=O)O)nc1 [Compound 25, 5-(3-(4-chloro-2-methylphenoxy)quinoxaline-2-carboxamido)picolinic acid]
  IC50: 56 nM

## COc1ccc(Oc2nc3ccccc3nc2C(=O)Nc2ccc(C(=O)O)nc2)c(OC)c1 [Compound 26, 5-(3-(2,4-dimethoxyphenoxy)quinoxaline-2-carboxamido)picolinic acid]
  IC50: 46 nM

## COc1ccc(Oc2nc3ccccc3nc2C(=O)Nc2ccc(C(=O)O)nc2)cc1F [Compound 27, 5-(3-(3-fluoro-4-methoxyphenoxy)quinoxaline-2-carboxamido)picolinic acid]
  IC50: 185 nM

## O=C(O)c1ccc(NC(=O)c2nc3ccccc3nc2Oc2ccc(F)cc2Cl)cn1 [Compound 28, 5-(3-(2-chloro-4-fluorophenoxy)quinoxaline-2-carboxamido)picolinic acid]
  IC50: 51 nM

## O=C(O)c1ccc(NC(=O)c2nc3ccccc3nc2Oc2ccc(F)cc2F)cn1 [Compound 29, 5-(3-(2,4-difluorophenoxy)quinoxaline-2-carboxamido)picolinic acid]
  IC50: 185 nM

## COc1ccc(Oc2nc3ccccc3nc2C(=O)Nc2ccc(C(=O)O)nc2)c(Cl)c1 [Compound 30, 5-(3-(2-chloro-4-methoxyphenoxy)quinoxaline-2-carboxamido)picolinic acid]
  IC50: 69 nM

## O=C(O)c1ccc(NC(=O)c2nc3ccccc3nc2Oc2ccc(OC(F)(F)F)cc2)cn1 [Compound 31, 5-(3-(4-(trifluoromethoxy)phenoxy)quinoxaline-2-carboxamido)picolinic acid]
  IC50: 15 nM

## COc1cc(F)ccc1Oc1nc2ccccc2nc1C(=O)Nc1ccc(C(=O)O)nc1 [Compound 32, 5-(3-(4-fluoro-2-methoxyphenoxy)quinoxaline-2-carboxamido)picolinic acid]
  IC50: 83 nM

## O=C(O)c1cc(NC(=O)c2nc3ccccc3nc2Oc2ccc(OC(F)(F)F)cc2)ccn1 [Compound 33, 4-(3-(4-(trifluoromethoxy)phenoxy)quinoxaline-2-carboxamido)picolinic acid]
  IC50: 7 nM
